Test results reported in ChEMBL document CHEMBL1201862, “PubChem BioAssay data set” (2004).
Activity calls are given as the source filed them.

Tests used:
[1] = target: UDP-galactopyranose mutase (Mycobacterium tuberculosis, UniProt P9WIQ1); experiment: Inhibitors of Mycobacterium tuberculosis UDP-galactopyranose mutase (UGM) enzyme Measured in Biochemical System Using Plate Reader - 2105-02_Inhibitor_Dose_CherryPick_Activity. [Related pubchem assays (depositor defined):AID504439]
[2] = target: T1, Fibrinogen beta chain (Homo sapiens, UniProt P02675); experiment: Fluorescence polarization-based biochemical high throughput dose response assay to identify inhibitors that disrupt the binding of a cyclic peptide (Tn6) to the fibrin proteolytic product D-Dimer and fragment E complex [DD(E )].
T1 sequence (P02675 whole entry): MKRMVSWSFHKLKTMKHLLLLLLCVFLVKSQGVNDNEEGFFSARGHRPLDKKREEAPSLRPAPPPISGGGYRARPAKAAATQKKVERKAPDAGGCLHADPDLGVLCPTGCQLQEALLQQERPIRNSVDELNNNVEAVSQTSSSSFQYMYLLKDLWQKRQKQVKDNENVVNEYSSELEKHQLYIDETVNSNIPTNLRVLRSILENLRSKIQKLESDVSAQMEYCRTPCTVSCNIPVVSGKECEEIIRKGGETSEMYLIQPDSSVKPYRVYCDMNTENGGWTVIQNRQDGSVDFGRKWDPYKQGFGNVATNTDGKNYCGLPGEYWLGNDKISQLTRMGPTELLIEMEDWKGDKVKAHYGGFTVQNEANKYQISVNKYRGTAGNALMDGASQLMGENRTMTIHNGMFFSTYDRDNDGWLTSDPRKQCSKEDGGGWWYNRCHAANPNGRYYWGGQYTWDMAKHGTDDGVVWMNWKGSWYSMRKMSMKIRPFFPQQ

[3] = target: Protein S100-A4 (Homo sapiens, UniProt P26447); experiment: S100A4-myosin IIA binding inhibitor potency, dose response, biochemical, fluorescence polarization, cherry-picked hits (AID 687001); assay type: functional
[4] = target: ORF 73 (Human herpesvirus 8, UniProt O40947); experiment: inhibitors of C-LANA binding to LBS DNA, dose response, biochemical, fluorescence polarization, cherry-picked samples (AID 504725); design: species or system Human gammaherpesvirus 8;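 also: fluorescence polarization of a labeled DNA duplex reporting LANA DNA binding; potency is for inhibitors that block LANA binding to the DNA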
[5] = target: T2, RNA-binding protein pos-1 (Caenorhabditis elegans, UniProt G5EF15); experiment: inhibitors of POS-1/mex-3 RNA binding, dose response, biochemical, fluorescence polarization (AID 1964);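 also: purified POS-1 fused to maltose binding protein made in E. coli; potency of compounds blocking POS-1 binding to fluorescent RNA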
T2 sequence (G5EF15 whole entry): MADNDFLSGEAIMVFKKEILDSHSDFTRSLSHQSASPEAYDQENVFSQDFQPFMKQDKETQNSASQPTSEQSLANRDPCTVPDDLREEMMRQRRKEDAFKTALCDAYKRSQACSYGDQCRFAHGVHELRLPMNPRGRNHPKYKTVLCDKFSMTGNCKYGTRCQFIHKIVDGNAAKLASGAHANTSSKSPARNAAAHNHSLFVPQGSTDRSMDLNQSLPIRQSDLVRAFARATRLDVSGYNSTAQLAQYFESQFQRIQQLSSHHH

[6] = target: T3, Zinc finger protein mex-5 (Caenorhabditis elegans, UniProt Q9XUB2); experiment: MEX-5/TCR-2 RNA interaction inhibitors, dose response, biochemical, C. elegans, fluorescence polarization (AID 1960)
T3 sequence (Q9XUB2 whole entry): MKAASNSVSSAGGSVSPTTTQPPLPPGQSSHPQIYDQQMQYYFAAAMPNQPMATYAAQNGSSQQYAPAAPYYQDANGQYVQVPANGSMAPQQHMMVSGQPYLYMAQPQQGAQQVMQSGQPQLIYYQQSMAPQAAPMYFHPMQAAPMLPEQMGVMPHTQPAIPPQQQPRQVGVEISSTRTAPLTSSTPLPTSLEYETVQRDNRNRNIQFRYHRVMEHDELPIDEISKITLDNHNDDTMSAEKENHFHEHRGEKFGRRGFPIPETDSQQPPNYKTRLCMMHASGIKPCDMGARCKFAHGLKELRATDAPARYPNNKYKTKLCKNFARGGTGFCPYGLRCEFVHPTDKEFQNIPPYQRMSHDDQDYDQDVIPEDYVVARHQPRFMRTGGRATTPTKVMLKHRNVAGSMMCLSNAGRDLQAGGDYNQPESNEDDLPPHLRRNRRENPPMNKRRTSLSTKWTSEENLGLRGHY

[7] = target: Keap1/Nrf2 (Homo sapiens, UniProt Q14145); experiment: Keap1-Nrf2 protein-protein interaction inhibitors, dose response, biochemical, fluorescence polarization, cherry-picked samples (AID 588683)
[8] = target: E3 ubiquitin-protein ligase XIAP (Homo sapiens, UniProt P98170); experiment: Counter Screen using XIAP-Bir3 for Chemical Antagonists of Bir1/2 domains of IAP-family anti-apoptotic proteins. [Related pubchem assays (depositor defined):AID1018, AID1449, AID1514, AID1638, AID1749, AID1750, AID488957, AID488963]
[9] = target: T1, Fibrinogen beta chain; experiment: Fluorescence polarization-based biochemical high throughput dose response assay to identify inhibitors that disrupt the binding of a cyclic peptide (Tn7) to the fibrin proteolytic product D-Dimer and fragment E complex [DD(E )].
[10] = target: Eukaryotic translation initiation factor 4E (Mus musculus, UniProt P63073); experiment: eIF4E–eIF4G protein interaction inhibitors, dose response, biochemical, TR-FRET (AID 855); assay type: functional;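 also: potency for disrupting eIF4E binding to eIF4GI seen as loss of FRET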
[11] = target: T4, Cysteine protease ATG4B (Homo sapiens, UniProt Q9Y4P1); assay type: functional;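 also: Fluorescence-based dose-response confirmation assay measuring inhibition of ATG4B activity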
T4 sequence (Q9Y4P1 whole entry): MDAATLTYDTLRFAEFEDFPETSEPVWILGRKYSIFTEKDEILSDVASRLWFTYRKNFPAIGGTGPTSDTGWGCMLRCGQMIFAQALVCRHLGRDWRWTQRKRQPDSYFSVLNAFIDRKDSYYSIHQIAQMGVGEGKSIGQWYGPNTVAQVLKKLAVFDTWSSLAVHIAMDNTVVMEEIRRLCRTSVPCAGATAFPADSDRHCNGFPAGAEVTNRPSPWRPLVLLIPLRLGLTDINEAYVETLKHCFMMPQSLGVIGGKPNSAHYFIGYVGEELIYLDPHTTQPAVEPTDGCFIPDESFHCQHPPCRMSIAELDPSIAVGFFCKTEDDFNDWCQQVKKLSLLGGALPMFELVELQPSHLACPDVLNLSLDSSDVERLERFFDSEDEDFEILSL

[12] = inhibitors of Bluetongue virus cytopathic effect, confirmation, arbovirus, BSR cells (AID 1250); assay type: functional;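 also: protection from viral cytopathic effect measured as cell viability by ATP luminescence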
[13] = target: Phospholipase A2 (Homo sapiens, UniProt P04054); assay type: functional;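 also: confirmatory dose-response counterscreen on phospholipase A2, testing hits that came from an ultra-high-throughput screen for ATG4B inhibitors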
[14] = target: NS3 (Hepatitis C virus, UniProt A3EZJ3); experiment: PubChem AID 2173; design: species or system Hepacivirus hominis
[15] = target: T5, Dual specificity protein phosphatase 3 (Homo sapiens, UniProt P51452); experiment: VHR1 phosphatase inhibitors, primary screen, biochemical, absorbance, uHTS (AID 1654)
[16] = target: T6, Induced myeloid leukemia cell differentiation protein Mcl-1 (Homo sapiens, UniProt Q07820); assay type: functional
[17] = target: T7, Voltage-gated N-type calcium channel alpha-1B subunit/Amyloid beta A4 precursor protein-binding family A member 1 (Homo sapiens, UniProt Q00975+Q02410); assay type: protein assay
[18] = target: Dual specificity protein phosphatase 6 (Rattus norvegicus, UniProt Q64346); experiment: MKP-3 phosphatase inhibitors, primary screen, biochemical, rat enzyme, in vitro (AID 425)
[19] = target: T7, Voltage-gated N-type calcium channel alpha-1B subunit/Amyloid beta A4 precursor protein-binding family A member 1; assay type: protein assay; remark: listed apart in the source
[20] = target: Bcl-2-like protein 1 (Homo sapiens, UniProt Q07817); experiment: BCL-XL inhibitors, dose response, selectivity assay for MCL1 inhibitor project, biochemical, fluorescence polarization, 1536-well (AID 2218)
[21] = target: T5, Dual specificity protein phosphatase 3; experiment: VHR1 phosphatase inhibitors, biochemical (AID 1878)
[22] = target: T6, Induced myeloid leukemia cell differentiation protein Mcl-1; experiment: MCL1-BIM BH3 interaction inhibitors, dose response, biochemical, fluorescence polarization, BIM-BH3 peptide, 1536-well (AID 2217)
[23] = target: CAAX prenyl protease 1 (Saccharomyces cerevisiae S288c, UniProt P47154); experiment: Ste24 protease inhibitors, dose response, biochemical, S. cerevisiae, plate reader, cherry-pick (AID 488815)
[24] = target: Trypsin (Sus scrofa, UniProt P00761); experiment: porcine trypsin inhibitors, dose response, selectivity assay for Rce1 protease inhibitor project, biochemical, quenched peptide fluorescence, cherry-pick (AID 488789)
[25] = target: T8, Kappa-type opioid receptor (Homo sapiens, UniProt P41145); experiment: KOR agonist analogs, imaging readout, SAR follow-up, image-based (AID 2359); assay type: functional
[26] = target: T9, Mu-type opioid receptor (Homo sapiens, UniProt P35372); experiment: MOR agonists by imaging, SAR follow-up, image-based (AID 2352); assay type: functional
[27] = target: T10, Delta-type opioid receptor (Homo sapiens, UniProt P41143); experiment: DOR antagonists, SAR follow-up, image-based (AID 2357); assay type: functional
[28] = target: T9, Mu-type opioid receptor; experiment: MOR antagonists, SAR follow-up, image-based (AID 2420); assay type: functional;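 also: compounds added before stimulation of receptor with agonist DAMGO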
[29] = target: T8, Kappa-type opioid receptor; experiment: kappa opioid receptor blockers, cell-based, luminescence, beta-arrestin, SAR follow-up (AID 2285); assay type: functional
[30] = target: T10, Delta-type opioid receptor; experiment: DOR agonists, SAR follow-up, image-based (AID 2370); assay type: functional
[31] = target: T8, Kappa-type opioid receptor; experiment: KOR antagonists by imaging, SAR follow-up, image-based (AID 2348); assay type: functional

T8 sequence (P41145 whole entry): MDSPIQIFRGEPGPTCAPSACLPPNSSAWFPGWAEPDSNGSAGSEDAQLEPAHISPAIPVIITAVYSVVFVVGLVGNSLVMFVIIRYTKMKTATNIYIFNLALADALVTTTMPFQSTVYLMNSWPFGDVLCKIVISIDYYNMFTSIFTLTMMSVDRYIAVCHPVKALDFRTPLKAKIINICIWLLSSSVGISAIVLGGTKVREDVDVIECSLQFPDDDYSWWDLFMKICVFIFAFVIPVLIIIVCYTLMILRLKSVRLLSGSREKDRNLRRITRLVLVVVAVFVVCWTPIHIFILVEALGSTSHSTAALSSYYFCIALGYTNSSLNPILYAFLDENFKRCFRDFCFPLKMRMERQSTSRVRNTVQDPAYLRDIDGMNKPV
T5 sequence (P51452 whole entry): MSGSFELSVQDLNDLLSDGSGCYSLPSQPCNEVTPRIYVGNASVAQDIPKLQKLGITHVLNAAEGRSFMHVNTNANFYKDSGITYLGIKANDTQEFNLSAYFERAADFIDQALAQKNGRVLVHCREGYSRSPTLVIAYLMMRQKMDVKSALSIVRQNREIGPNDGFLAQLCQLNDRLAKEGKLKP
T7 sequence (Q00975 whole entry): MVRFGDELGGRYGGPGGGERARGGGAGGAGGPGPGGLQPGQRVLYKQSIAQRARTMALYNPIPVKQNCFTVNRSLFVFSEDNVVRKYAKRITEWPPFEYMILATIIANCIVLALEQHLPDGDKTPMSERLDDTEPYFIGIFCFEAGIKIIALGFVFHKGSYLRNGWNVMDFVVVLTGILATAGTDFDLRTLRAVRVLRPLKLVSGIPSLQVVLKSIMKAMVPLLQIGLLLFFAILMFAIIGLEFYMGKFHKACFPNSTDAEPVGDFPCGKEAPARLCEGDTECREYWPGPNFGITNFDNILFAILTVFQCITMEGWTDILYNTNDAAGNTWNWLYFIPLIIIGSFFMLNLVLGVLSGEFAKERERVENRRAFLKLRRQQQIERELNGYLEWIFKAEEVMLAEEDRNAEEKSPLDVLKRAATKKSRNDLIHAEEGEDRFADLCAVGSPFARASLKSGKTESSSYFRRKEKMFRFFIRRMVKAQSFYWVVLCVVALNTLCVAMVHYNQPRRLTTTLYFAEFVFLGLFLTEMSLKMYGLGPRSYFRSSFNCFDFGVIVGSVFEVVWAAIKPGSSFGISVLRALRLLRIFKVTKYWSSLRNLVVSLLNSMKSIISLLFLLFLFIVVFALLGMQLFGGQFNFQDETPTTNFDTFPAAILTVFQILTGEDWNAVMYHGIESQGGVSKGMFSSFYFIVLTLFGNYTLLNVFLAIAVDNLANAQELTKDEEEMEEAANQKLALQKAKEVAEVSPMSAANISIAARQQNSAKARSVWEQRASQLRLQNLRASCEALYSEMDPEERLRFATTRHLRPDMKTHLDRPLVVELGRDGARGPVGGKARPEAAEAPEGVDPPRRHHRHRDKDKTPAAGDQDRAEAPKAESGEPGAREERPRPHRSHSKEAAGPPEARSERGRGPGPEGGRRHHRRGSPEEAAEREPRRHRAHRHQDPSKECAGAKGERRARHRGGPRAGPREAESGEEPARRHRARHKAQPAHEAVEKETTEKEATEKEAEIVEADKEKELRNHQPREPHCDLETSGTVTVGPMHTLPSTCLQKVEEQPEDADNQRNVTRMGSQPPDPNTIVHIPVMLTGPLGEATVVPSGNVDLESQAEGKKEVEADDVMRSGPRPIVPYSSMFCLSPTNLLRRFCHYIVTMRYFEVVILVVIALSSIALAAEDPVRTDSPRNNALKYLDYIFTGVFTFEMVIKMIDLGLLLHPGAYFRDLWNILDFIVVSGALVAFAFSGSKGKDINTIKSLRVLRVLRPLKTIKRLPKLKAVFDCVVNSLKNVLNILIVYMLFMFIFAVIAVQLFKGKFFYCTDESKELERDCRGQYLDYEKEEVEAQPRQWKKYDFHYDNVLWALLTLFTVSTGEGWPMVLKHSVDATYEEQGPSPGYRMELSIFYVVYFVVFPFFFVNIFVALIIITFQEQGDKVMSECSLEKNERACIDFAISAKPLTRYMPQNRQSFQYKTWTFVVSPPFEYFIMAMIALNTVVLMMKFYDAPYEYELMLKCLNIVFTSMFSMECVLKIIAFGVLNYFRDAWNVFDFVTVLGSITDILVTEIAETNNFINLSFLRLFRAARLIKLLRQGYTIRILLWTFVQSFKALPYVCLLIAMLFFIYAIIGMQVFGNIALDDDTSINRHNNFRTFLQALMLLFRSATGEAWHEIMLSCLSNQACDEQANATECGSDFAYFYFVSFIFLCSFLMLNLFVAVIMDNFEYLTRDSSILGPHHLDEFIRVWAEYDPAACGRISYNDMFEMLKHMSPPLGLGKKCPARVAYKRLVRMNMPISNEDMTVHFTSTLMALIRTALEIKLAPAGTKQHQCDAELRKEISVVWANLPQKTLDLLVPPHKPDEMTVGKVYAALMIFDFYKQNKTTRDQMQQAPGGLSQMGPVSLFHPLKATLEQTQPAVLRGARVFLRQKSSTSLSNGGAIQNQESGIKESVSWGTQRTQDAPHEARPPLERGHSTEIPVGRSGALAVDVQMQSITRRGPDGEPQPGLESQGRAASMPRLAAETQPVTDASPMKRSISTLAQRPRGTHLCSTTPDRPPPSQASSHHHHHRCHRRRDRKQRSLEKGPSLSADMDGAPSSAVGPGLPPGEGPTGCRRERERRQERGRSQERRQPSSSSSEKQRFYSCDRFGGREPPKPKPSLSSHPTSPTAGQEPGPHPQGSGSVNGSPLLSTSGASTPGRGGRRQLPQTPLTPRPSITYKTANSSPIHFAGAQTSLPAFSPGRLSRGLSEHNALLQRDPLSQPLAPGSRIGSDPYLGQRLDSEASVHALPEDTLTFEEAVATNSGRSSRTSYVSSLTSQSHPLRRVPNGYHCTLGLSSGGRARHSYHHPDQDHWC
T7 sequence (Q02410 whole entry): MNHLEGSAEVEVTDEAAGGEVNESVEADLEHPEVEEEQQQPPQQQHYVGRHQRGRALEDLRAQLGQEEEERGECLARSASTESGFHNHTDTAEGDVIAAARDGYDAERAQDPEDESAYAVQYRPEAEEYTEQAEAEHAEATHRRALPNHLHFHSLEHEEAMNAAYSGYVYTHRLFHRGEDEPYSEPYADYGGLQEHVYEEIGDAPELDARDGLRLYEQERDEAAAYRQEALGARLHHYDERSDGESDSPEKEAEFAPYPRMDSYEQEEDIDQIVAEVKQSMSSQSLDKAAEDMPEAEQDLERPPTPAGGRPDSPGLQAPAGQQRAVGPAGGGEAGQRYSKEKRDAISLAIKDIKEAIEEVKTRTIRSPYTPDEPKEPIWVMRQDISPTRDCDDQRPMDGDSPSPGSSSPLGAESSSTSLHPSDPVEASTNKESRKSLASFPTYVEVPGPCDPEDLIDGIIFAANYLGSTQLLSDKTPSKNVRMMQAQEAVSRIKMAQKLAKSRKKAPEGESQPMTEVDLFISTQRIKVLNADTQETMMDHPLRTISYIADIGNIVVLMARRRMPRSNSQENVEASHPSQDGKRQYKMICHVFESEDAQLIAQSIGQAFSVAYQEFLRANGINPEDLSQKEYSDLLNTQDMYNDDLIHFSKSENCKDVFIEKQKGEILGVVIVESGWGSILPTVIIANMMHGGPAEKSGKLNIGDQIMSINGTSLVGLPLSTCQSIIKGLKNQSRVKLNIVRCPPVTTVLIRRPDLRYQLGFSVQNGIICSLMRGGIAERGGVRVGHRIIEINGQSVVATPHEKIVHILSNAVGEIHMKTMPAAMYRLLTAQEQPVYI
T6 sequence (Q07820 whole entry): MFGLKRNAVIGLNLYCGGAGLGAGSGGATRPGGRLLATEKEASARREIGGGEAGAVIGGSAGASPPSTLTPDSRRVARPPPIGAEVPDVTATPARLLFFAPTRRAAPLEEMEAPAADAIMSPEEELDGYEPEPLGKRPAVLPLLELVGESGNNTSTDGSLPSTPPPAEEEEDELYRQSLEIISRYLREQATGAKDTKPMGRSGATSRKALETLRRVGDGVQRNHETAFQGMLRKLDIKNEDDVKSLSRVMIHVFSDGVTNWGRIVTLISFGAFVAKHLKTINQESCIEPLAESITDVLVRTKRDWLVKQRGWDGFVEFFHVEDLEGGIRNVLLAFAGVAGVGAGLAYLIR
T9 sequence (P35372 whole entry): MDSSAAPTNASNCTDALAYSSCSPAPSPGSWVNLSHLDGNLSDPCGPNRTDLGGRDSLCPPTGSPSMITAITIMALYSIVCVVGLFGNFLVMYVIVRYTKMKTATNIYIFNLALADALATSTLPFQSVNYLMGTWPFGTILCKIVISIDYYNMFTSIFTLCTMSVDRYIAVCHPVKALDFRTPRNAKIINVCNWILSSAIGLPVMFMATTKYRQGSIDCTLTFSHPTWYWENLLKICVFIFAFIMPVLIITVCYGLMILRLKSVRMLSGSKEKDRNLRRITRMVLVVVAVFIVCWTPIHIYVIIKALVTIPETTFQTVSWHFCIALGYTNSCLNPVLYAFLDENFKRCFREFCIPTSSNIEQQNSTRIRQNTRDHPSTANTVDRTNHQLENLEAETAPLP
T10 sequence (P41143 whole entry): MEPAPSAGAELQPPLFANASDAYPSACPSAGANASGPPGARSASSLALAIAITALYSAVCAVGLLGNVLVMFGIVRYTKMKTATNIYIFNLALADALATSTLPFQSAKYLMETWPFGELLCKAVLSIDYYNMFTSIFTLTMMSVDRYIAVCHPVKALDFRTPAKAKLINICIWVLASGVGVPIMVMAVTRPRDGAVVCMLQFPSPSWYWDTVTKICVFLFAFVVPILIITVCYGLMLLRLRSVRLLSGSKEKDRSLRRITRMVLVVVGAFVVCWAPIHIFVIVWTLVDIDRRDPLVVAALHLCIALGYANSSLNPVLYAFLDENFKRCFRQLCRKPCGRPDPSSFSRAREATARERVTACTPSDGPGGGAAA
Chain of Phospholipase A2 (P04054 whole entry): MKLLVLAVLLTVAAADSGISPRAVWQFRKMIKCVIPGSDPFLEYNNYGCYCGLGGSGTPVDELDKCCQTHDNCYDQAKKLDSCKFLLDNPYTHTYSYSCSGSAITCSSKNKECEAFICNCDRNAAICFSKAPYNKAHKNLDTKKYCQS

CN1C(=O)NC(c2ccccc2[N+](=O)[O-])C2=C1CCCC2=O (stereo unspecified)
AC50 [1]: 54.3 µM (active) | IC50 [2]: 11.3 µM (inactive) | AC50 [3]: 1.41 µM (active) | AC50 [4]: 24.9 µM (active) | EC50 [5]: 8.8 µM (active) | EC50 [6]: 7.58 µM (inconclusive) | AC50 [7]: 44.5 µM (active) | IC50 [8]: > 20 µM (inactive) | IC50 [9]: > 83.3 µM (inactive)

COc1ccc(-n2cccc2/C=C2\C(=N)N3N=C(c4ccco4)SC3=NC2=O)cc1
IC50 [10]: 50 µM (inactive) | IC50 [11]: 2.73 µM (active) | IC50 [12]: 33.2 µM (active) | IC50 [13]: 1.09 µM (active) | IC50 [14]: 7.79 µM (active) | IC50 [15]: 6.65 µM (active) | IC50 [16]: 19.3 µM (active) | IC50 [17]: > 50 µM (inactive) | IC50 [18]: 9.04 µM (active) | IC50 [19]: 14.1 µM (active) | IC50 [20]: > 109 µM (not active) | IC50 [21]: 2.27 µM (active) | IC50 [22]: 4.93 µM (active)

CCCCNC(=O)C(CC)Sc1nc2sc(C(=O)OC)c(C)c2c(=O)n1N (stereo unspecified)
AC50 [23]: 8.14 µM (active) | AC50 [24]: 0.985 µM (active)

Oc1ccc(C=NNc2ccnc3cc(Cl)ccc23)cc1O
EC50 [25]: > 32 µM (inactive) | EC50 [26]: > 32 µM (inactive) | IC50 [27]: 18.9 µM (inactive) | IC50 [28]: > 32 µM (inactive) | IC50 [29]: > 10 µM (inactive) | EC50 [30]: > 32 µM (inactive) | IC50 [31]: 24.8 µM (inactive)
